The record followed here is patent US12584101B2, “Compositions and method of use for H5 competent Bifidobacterium longum subsp. Infantis” (INFINANT HEALTH, INC., priority 2018, dated 2026).

The test system of this experiment is Blon_0881 and Blon_2343. The experiment in a line: qPCR gene expression of Blon_0881 and Blon_2343 relative to Blon_0393 (activation). Format: cell-based, B. infantis. As to conditions: 5, 10, 15 and 20 g/L of NAG, rest glucose to 20 g/L; stationary phase. Here is the method: In some embodiments, gene activation relates to Blon_0881 and Blon_2343 and their expression is greater than 1; that is, when the delta delta cycle threshold (2^ΔΔCt) is greater than 1, DDCT is calculated using Blon_0393, or another constitutively expressed gene as a reference. The result (activation) is the fold change (2^ΔΔCt>1) of gene expression. Determined based on the double delta CT (2^ΔΔCt) method (Livak K and Schmittgen T. (2001) Analysis of relative gene expression data using real-time quantitative PCR and the 2(−Delta Delta C(T)) Method. Methods: 25: 402-8). In other embodiments, other genes from Table 1 are used in addition to Blon_0881 and Blon_2343.
A series of fermentations were conducted where B. infantis was grown on various concentrations of NAG and glucose. MRS broth was prepared without a carbon source. The carbon source was added at 2% of the media or 20 g/L. The carbon source was varied according to Table 5. The cells were grown to the stationary phase and spun down. The supernatant was removed and the cells lysed. RNA was extracted. The cells were tested for increase in gene expression of Blon_0881 and Blon_2343 by qPCR relative to Blon_0393. The 2^ΔΔCt was greater than 1 confirming activation for 5, 10, 15 and 20 g/L of NAG. […]

Take “N-acetyl-glucosamine/galactosamine (NAG)”: the “2^ΔΔCt of Blon_0881 and Blon_2343 relative to Blon_0393” value is reported as “greater than 1”.
